Experimental data as given in BigSolDB 2.1.

O=C(O)[C@@H](O)CCc1ccccc1
solubility (mole fraction)
Details | in ethyl acetate | in toluene | in water
278.2 K | 0.107 | – | –
283.2 K | 0.117 | – | 0.00071
288.2 K | 0.128 | 0.0013 | 0.00094
293.2 K | 0.14 | 0.00169 | 0.00107
298.2 K | 0.15 | 0.00235 | 0.00137
303.2 K | 0.16 | 0.00298 | 0.00172
308.2 K | 0.174 | 0.00407 | 0.00229
313.2 K | 0.182 | 0.00555 | 0.00311
318.2 K | – | 0.00729 | 0.00406
323.2 K | – | 0.00996 | 0.00701
328.2 K | – | 0.0127 | 0.0142
333.2 K | – | 0.0173 | 0.044
338.2 K | – | 0.0238 | –
343.2 K | – | 0.0341 | –
